Columns and labels:
[1] = system: nutrient lipid (PUFA, MUFA) peroxidation; test: Inhibition of nutrient lipid peroxidation, in vitro, iodometric titration
Method: Percentage inhibition was determined using an in vitro experiment. Olive oil, a polyunsaturated fatty acid (PUFA) and safflower oil, a monounsaturated fatty acid (MUFA) were used to simulate nutrient lipids.
In another embodiment, peroxidation is induced in nutrient lipids by thermally processing them at various temperatures and with various levels of alkalinity. The processing is repeated by adding the identified peroxidation inhibitor. The nutrient lipid in this case could be polyunsaturated fatty acid or monounsaturated fatty acid in liquid, semisolid or solid form.
(§1) The effectiveness of the inhibiting agents and their combinations were ascertained using a series of in vitro experiments with nutrient lysine or collage protein, various sugars, natural polyunsaturated fatty acids and monounsaturated fatty acids and natural, pure form of inhibiting agents in extract forms. Absorbance values, measured using a spectrophotometer, were used to determine and compare formation of glycated proteins. Industry standard iodometric titration was used to determine and compare peroxidation levels in lipids.
(§2) In the case of inhibition of nutrient protein glycation and nutrient lipid peroxidation for disease prevention, it is recommended that the amount of inhibiting agent to be combined with the nutrient protein or nutrient lipid be as shown in the Table 1. Further, a combination of such inhibiting agents could be applied to increase the effectiveness of inhibition.

[2] = system: nutrient protein (lysine) in the presence of reducing sugars; test: Inhibition of nutrient protein glycation, in vitro, absorbance by spectrophotometer
Method: Percentage inhibition was determined using an in vitro experiment. Lysine was used to simulate the nutrient protein.
In one embodiment of the present application, glycation is induced in the nutrient proteins by combining them with different types of sugars and thermally processing the combination at various temperatures and with various levels of alkalinity. The processing is repeated by adding the identified glycation inhibitor. The nutrient protein in this case could be lysine or any other nutrient protein in liquid, semisolid or solid form.
as §1, §2

[3] = system: nutrient protein (lysine); test: Effect of temperature on protein glycation, in vitro, spectrophotometer; conditions: for % decrease in AGE formation from 100 to 60 deg C.: protein glycation
Description: (§3) In one embodiment of the present application, glycation is induced in the nutrient proteins by combining them with different types of sugars and thermally processing the combination at various temperatures and with various levels of alkalinity. The processing is repeated by adding the identified glycation inhibitor. The nutrient protein in this case could be lysine or any other nutrient protein in liquid, semisolid or solid form. In the context of this invention, thermal processing implies heating the food at various temperatures using any method of cooking such as baking, roasting, frying, boiling, etc. […] The effectiveness of the inhibiting agents and their combinations were ascertained using a series of in vitro experiments with nutrient lysine or collage protein, various sugars, natural polyunsaturated fatty acids and monounsaturated fatty acids and natural, pure form of inhibiting agents in extract forms. Absorbance values, measured using a spectrophotometer, were used to determine and compare formation of glycated proteins. Industry standard iodometric titration was used to determine and compare peroxidation levels in lipids.

[4] = system: nutrient protein (lysine); test: Effect of pH variation on protein glycation, in vitro, spectrophotometer; conditions: for % decrease om AGE formation with decreasing pH: protein glycation
Description: as §3

Molecule: O=C1O[C@H]([C@@H](O)CO)C(O)=C1O [Antioxidant (Ascorbic Acid), Ascorbic Acid]
- Concentration needed for 50% inhibition, Lipid Peroxidation [1]: 11%
- Concentration needed for 50% inhibition, Protein Glycation [2]: 7%

Molecule: NC(=O)c1cccnc1 [Antioxidant (Niacinamide), Niacinamide]
- Concentration needed for 50% inhibition, Lipid Peroxidation [1]: 13%
- Concentration needed for 50% inhibition, Protein Glycation [2]: 15%

Molecule: O=C(O[C@@H]1Cc2c(O)cc(O)cc2O[C@@H]1c1cc(O)c(O)c(O)c1)c1cc(O)c(O)c(O)c1 [Catechin (EGCG), EGCG]
- Concentration needed for 50% inhibition, Lipid Peroxidation [1]: 9%
- Concentration needed for 50% inhibition, Protein Glycation [2]: 13%

Molecule: NCCC(=O)N[C@@H](Cc1cnc[nH]1)C(=O)O [Chelating agent (Carnosine), Carnosine]
- Concentration needed for 50% inhibition, Lipid Peroxidation [1]: 12%
- Concentration needed for 50% inhibition, Protein Glycation [2]: 16%

Molecule: O=C(CO)[C@@H](O)[C@H](O)[C@H](O)CO [Fructose]
- Absorbance at different temperatures ([3]; 60 deg C.): 0.1
- Absorbance at different temperatures ([3]; 80 deg C.): 0.37
- Absorbance at different temperatures ([3]; 100 deg C.): 0.5
- % decrease in AGE formation from 100 to 60 deg C. [3]: 79.1%
- Absorbance at different pH values ([4]; pH 8): 0.5
- Absorbance at different pH values ([4]; pH 10): 0.65
- Absorbance at different pH values ([4]; ph 4): 0.07
- % decrease om AGE formation with decreasing pH [4]: 89.4%

Molecule: OC[C@H]1O[C@@H](O[C@H]2[C@H](O)[C@@H](O)C(O)O[C@@H]2CO)[C@H](O)[C@@H](O)[C@H]1O (some centres unmarked) [Lactose]
- Absorbance at different temperatures ([3]; 60 deg C.): 0.06
- Absorbance at different temperatures ([3]; 80 deg C.): 0.18
- Absorbance at different temperatures ([3]; 100 deg C.): 0.17
- % decrease in AGE formation from 100 to 60 deg C. [3]: 67.9%
- Absorbance at different pH values ([4]; pH 8): 0.17
- Absorbance at different pH values ([4]; pH 10): 0.22
- Absorbance at different pH values ([4]; ph 4): 0.02
- % decrease om AGE formation with decreasing pH [4]: 90.8%

Molecule: OC[C@H]1O[C@H](O[C@H]2[C@H](O)[C@@H](O)[C@H](O)O[C@@H]2CO)[C@H](O)[C@@H](O)[C@@H]1O [Maltose]
- Absorbance at different temperatures ([3]; 60 deg C.): 0.04
- Absorbance at different temperatures ([3]; 80 deg C.): 0.22
- Absorbance at different temperatures ([3]; 100 deg C.): 0.22
- % decrease in AGE formation from 100 to 60 deg C. [3]: 80.0%
- Absorbance at different pH values ([4]; pH 8): 0.22
- Absorbance at different pH values ([4]; pH 10): 0.26
- Absorbance at different pH values ([4]; ph 4): 0.04
- % decrease om AGE formation with decreasing pH [4]: 84.4%

Molecule: Oc1ccc(C=Cc2cc(O)cc(O)c2)cc1 [Phenol (Resveratrol), Resveratrol]
- Concentration needed for 50% inhibition, Lipid Peroxidation [1]: 8%
- Concentration needed for 50% inhibition, Protein Glycation [2]: 10%

Molecule: O=C[C@H](O)[C@H](O)[C@H](O)CO [Ribose]
- Absorbance at different temperatures ([3]; 60 deg C.): 0.13
- Absorbance at different temperatures ([3]; 80 deg C.): 0.52
- Absorbance at different temperatures ([3]; 100 deg C.): 0.59
- % decrease in AGE formation from 100 to 60 deg C. [3]: 78.1%
- Absorbance at different pH values ([4]; pH 8): 0.59
- Absorbance at different pH values ([4]; pH 10): 0.79
- Absorbance at different pH values ([4]; ph 4): 0.09
- % decrease om AGE formation with decreasing pH [4]: 88.4%

Molecule: Tocopherol [Antioxidant (Tocopherol)]
- Concentration needed for 50% inhibition, Lipid Peroxidation [1]: 15%
- Concentration needed for 50% inhibition, Protein Glycation [2]: 17%
